Tests used:
[1] = test system: 22AG human telomeric sequence G4; assay: TO-PRO-3 G4-FID assay; type: binding; settings: TO-PRO-3 2 eq, K+100 buffer
Experimental: (§1) For the G4-FID assay, the oligonucleotides were dissolved in K^+100 buffer (10 mM lithium cacodylate buffer pH 7.3, 100 mM KCl, 1% DMSO). Oligonucleotide concentrations were determined on the basis of their absorbance at 260 nm. For the fluorimetric titration, the oligonucleotides were dissolved in K^+100 buffer without DMSO. For the FRET-melting assay, the oligonucleotides were dissolved in K^+1 buffer (10 mM lithium cacodylate buffer pH 7.3, 1 mM KCl, 99 mM LiCl) except for F-21-T. F-21-T was dissolved in K^+10 buffer (10 mM lithium cacodylate buffer pH 7.3, 10 mM KCl, 90 mM LiCl).
(§2) Prior to use, all oligonucleotides were pretreated by heating at 95 °C for 5 min, then rapidly cooled to 4 °C to favor the intramolecular folding by kinetic trapping. Duplex-DNA ds26 was prepared by heating the self-complementary strand at 90 °C for 5 min in K^+1 buffer followed by a slow cooling over 6 h.
(§3) Each G4-FID assay was performed in a 96-well Non-Binding Surface black with black bottom polystyrene microplates (Corning). Every ligand was tested on a line of the microplate, in duplicate. The microplate was filled with (a) K^+100 solution (qs for 200 μL), (b) 10 μL of a solution of pre-folded oligonucleotides (5 μM) and fluorescent probe (TO/TO-PRO-3 (10 μM—2 eq) or PhenDV (7,5 µM—1.5 eq)), and (c) an extemporaneously prepared 5 μM ligand solution in K^+100 buffer (0 to 100 μL) along the line of the microplate, i.e., from column A to column H: 0, 0.125, 0.25, 0.375, 0.5, 0.625, 0.75, 1.0, 1.25, 1.5, 2.0, and 2.5 μM. After 5 min of orbital shaking at 500 rpm, fluorescence is measured using the following experimental parameters: positioning delay of 0.5 s, 20 flashes per well, emission/excitation filters for TO at 485/520, TO-PRO-3 at 620/670, and PhenDV at 355/520 gain adjusted at 80% of the fluorescence from the most fluorescent well (i.e., a well from column A for TO and a well from column H).
(§4) The percentage of TO displacement is calculated from the fluorescence intensity (F), using (1) % TO displacement=1−F/F0 where F0 is the fluorescence from the fluorescent probe bound to DNA without added ligand.
(§5) The PhenDV displacement is calculated from the fluorescence intensity F; F(ligand+probe), which refers to the fluorescence of the probe in presence of the ligand (without G4); and F0, which is the fluorescence without added ligand. The term F(ligand+probe) is necessary as the ligand can quench the fluorescence of the probe. The percentage of displacement is then plotted as a function of the concentration of the added ligand. The DNA affinity was evaluated by the concentration of ligand required to decrease the fluorescence of the probe by 50%, was noted DC50, and was determined after non-linear fitting of the displacement curve.

[2] = test system: CEB25-WT minisatellite sequence G4; assay: TO-PRO-3 G4-FID assay; type: binding; settings: TO-PRO-3 2 eq, K+100 buffer
Experimental: as §1, §2, §3, §4, §5

c-myc G4 [3] = assay: TO-PRO-3 G4-FID assay; type: binding; settings: TO-PRO-3 2 eq, K+100 buffer
Experimental: as §1, §2, §3, §4, §5

c-myc G4 DNA = assay: Platination of c-myc followed by denaturing gel electrophoresis; type: biochemical; settings: for platination products on gel electrophoresis: c-myc 100 µM, 18 h at 32 °C, K+100 buffer; for platination of c-myc during melting temperature experiments: 0.2 µM c-myc, 1 µM complex, 25 to 95 °C gradient, K+1 buffer; for selectivity of platination, c-myc G4 vs duplex ds26 (competition kinetics): c-myc 0.2 µM, ds26 10 µM
Experimental: The five platinum complexes were incubated for 18 h at 32 °C with pre-folded 5’-end ^32P radiolabeled c-myc DNA (10 or 100 µM) and loaded on denaturing polyacrylamide gel electrophoresis (Figure 4).
Two main accelerated bands (A1 and A2) were detected for Pt-ttpy and three were detected for Pt-tpy (B1, B2, and B3) in the presence of 10 µM of DNA. However, for Pt-BisQ, two accelerated bands (C1 and C2) and one retarded band (C3) were only detected at higher DNA concentration (100 µM). It is noteworthy that c-myc platination products migrate faster that the non-platinated G4, resulting in a stark contrast if compared to 22AG in which platination products migrate slower (Figure 2): this is due to the presence of the still folded G4 structures that resist to denaturation, as already found. […] The platination sites of Pt-ttpy, Pt-tpy, and Pt-BisQ were determined by 3’-exonuclease digestion, which stops at the platinated base, followed by a de-platination treatment of the digested fragments with NaCN (Figures S6 and S7). The exact length of the digested de-platinated fragment was deduced from its migration compared with the one of a digestion ladder of the c-myc sequence on a denaturating gel electrophoresis.
The oligonucleotides were 5’-end-labelled using a polynucleotide kinase and (γ^32P)-ATP (Perkin Helmer). The reaction products were purified by electrophoresis on 20% denaturing gel. Sample platinations were prepared by folding a mixture of 5’-end-radiolabeled DNA and 10 µM or 100 µM of non-radiolabeled material in 100 mM KClO4 or 100 mM KCl solution except for the platination reaction in the denaturing temperature conditions. The folding was achieved by heating the samples at 90 °C for 5 min, followed by slow cooling to room temperature over the course of 2 h to induce the formation of the quadruplex structure. It was then incubated with platinum complexes, and platinated products were separated by electrophoresis on 15% denaturing gel. They were then eluted from gel, precipitated, treated by 3’-exonuclease at 37 °C for 30 min, and loaded on a 20% denaturing gel. The digested fragments were eluted from this gel precipitated, treated over night by NaCN 0.2M, precipitated, and loaded once again on a 20% denaturing gel. Gels were scanned using a STORM860 (Molecular Dynamics).

[4] = test system: 22AG human telomeric sequence G4; assay: TO G4-FID assay; type: binding; settings: TO 2 eq, K+100 buffer
Experimental: as §1, §2, §3, §4, §5

[5] = test system: CEB25-WT minisatellite sequence G4; assay: TO G4-FID assay; type: binding; settings: TO 2 eq, K+100 buffer
Experimental: as §1, §2, §3, §4, §5

c-myc G4 [6] = assay: TO G4-FID assay; type: binding; settings: TO 2 eq, K+100 buffer
Experimental: as §1, §2, §3, §4, §5

[7] = test system: 22AG human telomeric sequence G4; assay: PhenDV G4-FID assay; type: binding; settings: PhenDV 1.5 eq, K+100 buffer
Experimental: as §1, §2, §3
(§6) In the case of PhenDV, the fluorescence of the unbound probe is not negligible. The percentage of displacement becomes (2) % PhenDV Displacement=F−F0/Fligand+probe−F0
as §5

[8] = test system: CEB25-WT minisatellite sequence G4; assay: PhenDV G4-FID assay; type: binding; settings: PhenDV 1.5 eq, K+100 buffer
Experimental: as §1, §2, §3, §6, §5

c-myc G4 [9] = assay: PhenDV G4-FID assay; type: binding; settings: PhenDV 1.5 eq, K+100 buffer
Experimental: as §1, §2, §3, §6, §5

[10] = test system: 22AG (DNA, G4) AGGGTTAGGGTTAGGGTTAGGG; assay: G4-FID, thiazole orange displacement; settings: 100 mM KCl; 10 mM lithium cacodylate pH 7.3, 1% DMSO; thiazole orange displaced; 1 µM compound, 0.25 µM DNA
[11] = test system: c-myc (myc22) (DNA, G4) TGAGGGTGGGTAGGGTGGGTAA; assay: G4-FID, thiazole orange displacement; settings: 100 mM KCl; 10 mM lithium cacodylate pH 7.3, 1% DMSO; thiazole orange displaced; 1 µM compound, 0.25 µM DNA

SMILES | % of TOPRO3 displacement at 1 µM of ligand [1] [%] | % of TOPRO3 displacement at 1 µM of ligand [2] [%] | % of TOPRO3 displacement at 1 µM of ligand (c-myc G4 [3]) [%] | platination products on gel electrophoresis (c-myc G4 DNA) | % of TO displacement at 1 µM of ligand [4] [%] | % of TO displacement at 1 µM of ligand [5] [%] | % of TO displacement at 1 µM of ligand (c-myc G4 [6]) [%] | % of PhenDV displacement at 1 µM of ligand [7] [%] | % of PhenDV displacement at 1 µM of ligand [8] [%] | % of PhenDV displacement at 1 µM of ligand (c-myc G4 [9]) [%] | platination of c-myc during melting temperature experiments (c-myc G4 DNA) | selectivity of platination, c-myc G4 vs duplex ds26 (competition kinetics) (c-myc G4 DNA; K+10 buffer) | incubation time to metallate a large amount of c-myc* (c-myc G4 DNA; c-myc* 0.2 µM, K+10 buffer, 25 °C) [min] | % TO displacement [10] [%] | % TO displacement [11] [%]
CN(C)c1ccc(/C=C/c2cc(-c3ccccn3)nc(-c3ccccn3)n2)cc1.[Cl-].[Cl][Pt+] [Pt-vpym, Chloro-(E)-4-(2-(2,6-di(pyridin-2-yl)pyrimidin-4-yl)vinyl)-N,N-dimethylaniline-platinum(II) Chloride] | 28 | 23 | 32 | Non-defined platination products | – | – | – | – | – | – | – | – | – | – | –
Cc1ccc(-c2cc(-c3ccccn3)nc(-c3ccccn3)c2)cc1.[Cl-].[Cl][Pt+] [Pt-ttpy] | 65 | 62 | 76 | – | 80 | 66 | 64 | 63 | 45 | 22 | clearly platinate | high selectivity | ≤ 120 | > 80 | > 80
[Cl-].[Cl][Pt+].c1ccc(-c2cccc(-c3ccccn3)n2)nc1 [Pt-tpy] | 12 | – | 32 | – | 21 | 14 | 41 | 24 | 13 | 5 | clearly platinate | low binding selectivity | – | – | –
CN(C)CCCNCc1ccc(-c2cc(-c3ccccn3)nc(-c3ccccn3)c2)cc1.[Cl-].[Cl][Pt+] [Pt-ctpy] | 78 | 76 | 58 | Non-defined platination products | 88 | 82 | 76 | 84 | 72 | 29 | – | – | – | > 80 | > 80
[Cl-].[Cl][Pt+].c1ccc(-c2cc(-c3ccc(OCCN4CCCC4)cc3)nc(-c3ccccn3)n2)nc1 [Pt-cpym, Chloro-(2,4-di(pyridin-2-yl)-6-(4-(2-(pyrrolidin-1-yl)ethoxy)phenyl)pyrimidine)-platinum(II) Chloride] | 25 | – | – | Non-defined platination products | 67 | 43 | 33 | 43 | 33 | 3 | – | – | – | < 60 | < 60

Source: PMC6385020 (Molecules, 2019)
